# Key:
# Streptococcus mutans = test: Minimal inhibitory concentration (MIC) by broth dilution and checkerboard titration of combinations; format: cell-based
# Experimental: (§1) The minimal inhibitory concentration (MIC) of the test compound is the minimum concentration of compound required to inhibit growth of the test microorganism. The MIC is determined by serially diluting the test solution through tubes of sterile broth. The tubes are inoculated and incubated at 37°C for 48 hours. At the end of the incubation time, growth is checked macroscopically. The lowest concentration of test compound to inhibit growth is the MIC. This technique is used to assess antimicrobial activity of combinations. The checkerboard is the pattern found by multiple combinations of two agents in concentrations equal to, above and below their minimal inhibitory concentration for the microorganism tested against. The checkerboard consists of columns which contain the same amount of one agent which is diluted along the x-axis and rows which each contain the same amount of the second agent diluted along the y-axis. Thus each tube is a unique combination of the two agents. […] A method for illustrating the effect of the combination of the two agents is obtained by plotting the MIC's of each agent alone and the MIC's for these agents in combination. Antimicrobial synergy is indicated if the MIC's for the agents in combination are lower than the MIC's for the agents alone.
# [1] = system: Bacteroides melaninogenicus; test: as above; format: cell-based
# Experimental: as §1
# [2] = S. mutans, agent alone (other agent 0), Table XI, comparative
# [3] = B. melaninogenicus, agent alone (other agent 0), Table XI, comparative
# [4] = S. mutans, agent alone (other agent 0), Table VII
# [5] = B. melaninogenicus, agent alone (other agent 0), Table VII
# [6] = S. mutans, agent alone (other agent 0), Table IX
# [7] = B. melaninogenicus, agent alone (other agent 0), Table IX
# [8] = S. mutans, agent alone (other agent 0), second table of Example XI, comparative
# [9] = B. melaninogenicus, agent alone (other agent 0), second table of Example XI, comparative
# [10] = S. mutans, agent alone (other agent 0), Table X
# [11] = B. melaninogenicus, agent alone (other agent 0), Table X
structure (smiles),measurement,setting,value
"CCCCCc1ccc(C)cc1O [amyl-m-cresol, reference compound]",Minimum Inhibitory Concentration,Streptococcus mutans; [2],10 milligrams/liter
same,Minimum Inhibitory Concentration,"Streptococcus mutans; S. mutans, in combination with 50 milligrams/liter morpholinoamino alcohol HCl, Table XI",10 milligrams/liter
same,Minimum Inhibitory Concentration,"Streptococcus mutans; S. mutans, in combination with 100 milligrams/liter morpholinoamino alcohol HCl, Table XI",10 milligrams/liter
same,Minimum Inhibitory Concentration,[1]; [3],10 milligrams/liter
same,Minimum Inhibitory Concentration,"[1]; B. melaninogenicus, in combination with 50 milligrams/liter morpholinoamino alcohol HCl, Table XI",10 milligrams/liter
same,Minimum Inhibitory Concentration,"[1]; B. melaninogenicus, in combination with 100 milligrams/liter morpholinoamino alcohol HCl, Table XI",2.5 milligrams/liter
"CCCCCCCCCCCCOCC(O)CO (racemic) [1-0-dodecyl-rac-glycerol, reference compound]",Minimum Inhibitory Concentration,Streptococcus mutans; [4],10 miligrams/liter
same,Minimum Inhibitory Concentration,"Streptococcus mutans; S. mutans, in combination with 4 miligrams/liter morpholinoamino alcohol HCl",6 miligrams/liter
same,Minimum Inhibitory Concentration,"Streptococcus mutans; S. mutans, in combination with 100 miligrams/liter morpholinoamino alcohol HCl",2 miligrams/liter
same,Minimum Inhibitory Concentration,[1]; [5],10 miligrams/liter
same,Minimum Inhibitory Concentration,"[1]; B. melaninogenicus, in combination with 4 miligrams/liter morpholinoamino alcohol HCl",6 miligrams/liter
same,Minimum Inhibitory Concentration,"[1]; B. melaninogenicus, in combination with 20 miligrams/liter morpholinoamino alcohol HCl",2 miligrams/liter
"CCCCCCCCCCCC[N+](C)(C)CCOc1ccccc1 [domiphen bromide, reference compound]",Minimum Inhibitory Concentration,Streptococcus mutans; [6],1.0 milligrams/liter
same,Minimum Inhibitory Concentration,"Streptococcus mutans; S. mutans, in combination with 50 milligrams/liter morpholinoamino alcohol HCl, Table IX",1.0 milligrams/liter
same,Minimum Inhibitory Concentration,"Streptococcus mutans; S. mutans, in combination with 100 milligrams/liter morpholinoamino alcohol HCl, Table IX",0.5 milligrams/liter
same,Minimum Inhibitory Concentration,[1]; [7],50 milligrams/liter
same,Minimum Inhibitory Concentration,"[1]; B. melaninogenicus, in combination with 50 milligrams/liter morpholinoamino alcohol HCl, Table IX",12.5 milligrams/liter
same,Minimum Inhibitory Concentration,"[1]; B. melaninogenicus, in combination with 100 milligrams/liter morpholinoamino alcohol HCl, Table IX",6.25 milligrams/liter
"OCc1ccc(Cl)cc1Cl [2,4-dichloro-alcohol, 2,4-dichlorobenzyl alcohol, reference compound]",Minimum Inhibitory Concentration,Streptococcus mutans; [8],50 milligrams/liter
same,Minimum Inhibitory Concentration,"Streptococcus mutans; S. mutans, in combination with 50 milligrams/liter morpholinoamino alcohol HCl, the 12th table",50 milligrams/liter
same,Minimum Inhibitory Concentration,"Streptococcus mutans; S. mutans, in combination with 100 milligrams/liter morpholinoamino alcohol HCl, the 12th table",50 milligrams/liter
same,Minimum Inhibitory Concentration,[1]; [9],100 milligrams/liter
same,Minimum Inhibitory Concentration,"[1]; B. melaninogenicus, in combination with 50 milligrams/liter morpholinoamino alcohol HCl, the 12th table",100 milligrams/liter
same,Minimum Inhibitory Concentration,"[1]; B. melaninogenicus, in combination with 100 milligrams/liter morpholinoamino alcohol HCl, the 12th table",100 milligrams/liter
CCCC(CCC)CCCC1COCCN1CCO.Cl (stereo not drawn) [3-(4-propylheptyl)-4-(2-hydroxyethyl) morpholine hydrochloride],Minimum Inhibitory Concentration,"Streptococcus mutans; S. mutans (ATCC 2517S), agent alone (other agent 0), Table VIII",200 milligrams/liter
same,Minimum Inhibitory Concentration,Streptococcus mutans; [6],200 milligrams/liter
same,Minimum Inhibitory Concentration,Streptococcus mutans; [4],200 miligrams/liter
same,Minimum Inhibitory Concentration,Streptococcus mutans; [10],200 milligrams/liter
same,Minimum Inhibitory Concentration,Streptococcus mutans; [2],200 milligrams/liter
same,Minimum Inhibitory Concentration,Streptococcus mutans; [8],200 milligrams/liter
same,Minimum Inhibitory Concentration,"Streptococcus mutans; S. mutans, in combination with 0.25 milligrams/liter hexitidine (row with 50 morpholinoamino alcohol HCl)",50 milligrams/liter
same,Minimum Inhibitory Concentration,"Streptococcus mutans; S. mutans, in combination with 0.25 milligrams/liter hexitidine (row with 100 morpholinoamino alcohol HCl)",100 milligrams/liter
same,Minimum Inhibitory Concentration,"Streptococcus mutans; S. mutans, in combination with 0.5 milligrams/liter domiphen bromide",100 milligrams/liter
same,Minimum Inhibitory Concentration,"Streptococcus mutans; S. mutans, in combination with 1.0 milligrams/liter domiphen bromide",50 milligrams/liter
same,Minimum Inhibitory Concentration,"Streptococcus mutans; S. mutans, in combination with 2 miligrams/liter 1-0-dodecyl-rac-glycerol",100 miligrams/liter
same,Minimum Inhibitory Concentration,"Streptococcus mutans; S. mutans, in combination with 6 miligrams/liter 1-0-dodecyl-rac-glycerol",4 miligrams/liter
same,Minimum Inhibitory Concentration,"Streptococcus mutans; S. mutans, in combination with 10 milligrams/liter amyl-m-cresol (row with 50 morpholinoamino alcohol HCl)",50 milligrams/liter
same,Minimum Inhibitory Concentration,"Streptococcus mutans; S. mutans, in combination with 10 milligrams/liter amyl-m-cresol (row with 100 morpholinoamino alcohol HCl)",100 milligrams/liter
same,Minimum Inhibitory Concentration,"Streptococcus mutans; S. mutans, in combination with 50 milligrams/liter 2, 4-dichloro-alcohol (row with 50 morpholinoamino alcohol HCl)",50 milligrams/liter
same,Minimum Inhibitory Concentration,"Streptococcus mutans; S. mutans, in combination with 50 milligrams/liter 2, 4-dichloro-alcohol (row with 100 morpholinoamino alcohol HCl)",100 milligrams/liter
same,Minimum Inhibitory Concentration,"Streptococcus mutans; S. mutans, in the absence of the dodecyl glycerol",200 milligrams per liter
same,Minimum Inhibitory Concentration,"[1]; B. melaninogenicus (J18M2), agent alone (other agent 0), Table VIII",200 milligrams/liter
same,Minimum Inhibitory Concentration,"[1]; B. melaninogenicus (J18M2), in combination with 0.003 milligrams/liter cetyl pyridinium chloride",100 milligrams/liter
same,Minimum Inhibitory Concentration,"[1]; B. melaninogenicus (J18M2), in combination with 0.006 milligrams/liter cetyl pyridinium chloride",50 milligrams/liter
same,Minimum Inhibitory Concentration,[1]; [7],200 milligrams/liter
same,Minimum Inhibitory Concentration,[1]; [5],200 miligrams/liter
same,Minimum Inhibitory Concentration,[1]; [11],200 milligrams/liter
same,Minimum Inhibitory Concentration,[1]; [3],200 milligrams/liter
same,Minimum Inhibitory Concentration,[1]; [9],200 milligrams/liter
same,Minimum Inhibitory Concentration,"[1]; B. melaninogenicus, in combination with 0.125 milligrams/liter hexitidine",100 milligrams/liter
same,Minimum Inhibitory Concentration,"[1]; B. melaninogenicus, in combination with 0.25 milligrams/liter hexitidine",50 milligrams/liter
same,Minimum Inhibitory Concentration,"[1]; B. melaninogenicus, in combination with 2 miligrams/liter 1-0-dodecyl-rac-glycerol",20 miligrams/liter
same,Minimum Inhibitory Concentration,"[1]; B. melaninogenicus, in combination with 2.5 milligrams/liter amyl-m-cresol",100 milligrams/liter
same,Minimum Inhibitory Concentration,"[1]; B. melaninogenicus, in combination with 6 miligrams/liter 1-0-dodecyl-rac-glycerol",4 miligrams/liter
same,Minimum Inhibitory Concentration,"[1]; B. melaninogenicus, in combination with 6.25 milligrams/liter domiphen bromide",100 milligrams/liter
same,Minimum Inhibitory Concentration,"[1]; B. melaninogenicus, in combination with 10 milligrams/liter amyl-m-cresol",50 milligrams/liter
same,Minimum Inhibitory Concentration,"[1]; B. melaninogenicus, in combination with 12.5 milligrams/liter domiphen bromide",50 milligrams/liter
same,Minimum Inhibitory Concentration,"[1]; B. melaninogenicus, in combination with 100 milligrams/liter 2, 4-dichloro-alcohol (row with 50 morpholinoamino alcohol HCl)",50 milligrams/liter
same,Minimum Inhibitory Concentration,"[1]; B. melaninogenicus, in combination with 100 milligrams/liter 2, 4-dichloro-alcohol (row with 100 morpholinoamino alcohol HCl)",100 milligrams/liter
same,Minimum Inhibitory Concentration,"[1]; B. melaninogenicus, in the absence of the dodecyl glycerol",200 milligrams per liter
"CCCCC(CC)CN1CN(CC(CC)CCCC)CC(C)(N)C1 (stereo not drawn) [hexitidine, hexetidine, reference compound]",Minimum Inhibitory Concentration,Streptococcus mutans; [10],1.0 milligrams/liter
same,Minimum Inhibitory Concentration,"Streptococcus mutans; S. mutans, in combination with 50 milligrams/liter morpholinoamino alcohol HCl, Table X",0.25 milligrams/liter
same,Minimum Inhibitory Concentration,"Streptococcus mutans; S. mutans, in combination with 100 milligrams/liter morpholinoamino alcohol HCl, Table X",0.25 milligrams/liter
same,Minimum Inhibitory Concentration,[1]; [11],1.0 milligrams/liter
same,Minimum Inhibitory Concentration,"[1]; B. melaninogenicus, in combination with 50 milligrams/liter morpholinoamino alcohol HCl, Table X",0.25 milligrams/liter
same,Minimum Inhibitory Concentration,"[1]; B. melaninogenicus, in combination with 100 milligrams/liter morpholinoamino alcohol HCl, Table X",0.125 milligrams/liter

# — EP0510151B1, “IMPROVED ANTI-PLAQUE COMPOSITIONS COMPRISING A COMBINATION OF MORPHOLINOAMINO ALCOHOL AND ANTI-MICROBIAL AGENT” (Pharmacia AB, priority 1990, dated 1992)
